Key:
[1] = tested on: HK2 cells; test: Luminescent Cell Viability assay by measuring ATP (CellTiter-Glo 2.0); assay type: cell-based; settings: for Cell Survival (Average Lum): Table 5, additional study, 48 h in medium, Control 763 951, W/O AA 565 539
Protocol: An amino acid blend study was performed using HK2 cell response to evaluate kidney health benefit. The amino acid blend composed glycine, methionine, cysteine, and glutamine. Protocol for Luminescent Cell Viability assay by measuring ATP, a key indicator of cell health is detailed hereafter.
For each experiment, a frozen stock of HK2 cells banked with less than passage 4 was thawed and expanded in normal growing medium in a humidified incubator at 37° C. in 5% CO2. HK2 cells were cultured for a maximum of 3 passages prior to cellular assays and were passaged upon reaching 70-80% confluence, approximately every 3 days.
2500 HK2 cells were seeded in 384 well plate in normal growing medium. 24 h after, cells were starved during 2 hours in HBSS buffer to remove all amino acids traces and then a new medium with specific formulation is added for 48 h incubation: Control medium with all amino acids, Medium without amino acids, Medium with 4 amino acids blend, Medium with all amino acids except 4 amino acids of interest, Medium with glycine only, Medium with methionine only, Medium with cysteine only, Medium with glutamine only, and Medium with cysteine+glutamine only.
Treatment is stopped by adding a CellTiter-Glo® 2.0 assay reagent from Promega to lyse the cells, after 20 min of incubation at room temperature with under slight shaking luminescence level was measured using a luminescent plate reader as an indicator of cell viability. Presence of ATP indicates the presence of metabolically active cells.

[2] = tested on: Complex I (CI) respiration of isolated mitochondria from skeletal muscle; test: Acute oxidative stress (menadione) and mitochondrial high-resolution respirometry; assay type: in vivo; settings: adult zebrafish, 3 μM menadione 2 h, then glycine 50, 200, 450 μM or glucose 500 μM and 5 mM in water 2 h at 28° C.; FIG. 3
Protocol: Adult AB zebrafish of 4-6 months old were exposed in water to acute oxidative stress with 3 μM Menadione (Sigma-Aldrich) incubation for 2 h at 28° C. Following the stress, fish were divided into controls and treatment groups. Controls of the oxidative stress were then incubated in clean water for 2 h at 28° C. […] After BCA quantification of protein concentration, 150 μg of crude extract were used for high-resolution respirometry quantification. The Oxygraph-2k (O2k, OROBOROS Instruments) was used for measurements of respiration. Up to three O2k instruments ([…]) were used in parallel. […] Respiration of isolated mitochondria was determined using substrate-uncoupler-inhibitor titration (SUIT) protocols (Pesta and […], Methods Mol Biol. 2012; 810:25-58) with modifications. Pyruvate, glutammate and malate (5 mM, 10 mM, 2 mM, respectively) were used as substrate to induce Complex I (CI) respiration in presence of ADP (1 mM). […] CI respiration was calculated as the difference between total respiration (CI+CII) and the addition of CI inhibitor rotenone (0.5 μM); CII respiration was calculated as the difference between inhibited CI respiration and the addition of CII inhibitor malonic acid (5 mM). Total respiration (CI+CII, Tot resp) was assessed as the difference of the respiration in presence of all substrates and the total inhibition of CI and CII.

Compound | Cell Survival (Average Lum) [1] | protective effect on cell survival (in words) ([1]; Table 5 study) | Complex I dependent respiration (O2 consumption of isolated mitochondria) [2]
N[C@@H](CS)C(=O)O [cysteine] | 388 041 Lum |  | 
NC(=O)CC[C@H](N)C(=O)O [glutamine] | 740 156 Lum | performed similarly to the blend | 
NCC(=O)O [glycine] | 620 224 Lum |  | restores Complex I respiratory levels
CC1=CC(=O)c2ccccc2C1=O [menadione, Menadione, reference compound] |  |  | decreasing Complex I dependent respiration
CSCC[C@H](N)C(=O)O [methionine] | 611 869 Lum |  | 
